These results are taken from patent US20100204244A1, “AGENTS FOR TREATMENT OF DIABETIC RETINOPATHY AND DRUSEN FORMATION IN MACULAR DEGENERATION” (ALCON INC., priority 2003, published 2010).

For data set [1], the system named is Bovine retinal endothelial cells (BRECs). The data set can be described thus: In vitro oxidant stress assay (MTS viable cell assay) in retinal endothelial cells exposed to t-butyl hydroperoxide. The class given is cell-based. The protocol: The present example provides a study wherein cultured retinal endothelial cells were exposed to an oxidant stress to evaluate the protective effects of pretreatment with quercetin. In addition, the present example provides an assay system for screening compounds for therapeutic activity in nonproliferative diabetic retinopathy.
Bovine retinal endothelial cells (BRECs) (VEC Technologies, Rensselaer, N.Y.) were grown on fibronectin ([…])-coated plasticware at 37° C. in 5% CO2 in MCDB-131 Complete media (VEC Technologies, Rensselaer, N.Y.). For serum-free media (SFM) conditions, MCDB-131 was used supplemented at 5 ml/500 ml with 100× antibiotic/antimycotic, 10 mM L-glutamine, and 0.1% BSA (all from Life Technologies Inc., Grand Island, N.Y.).
The BRECs were seeded at 10,000 cells/well and allowed to attach and grow for three days in 0.2 ml/well in complete media (10% fetal bovine serum (FBS)). The complete media was replaced with SFM for the next twenty-four hours at which time 25 μM quercetin, 100 μM DL-buthionine-(S,R)-sulfoximine (BSO, Sigma, St. Louis, Mo.), and the 0.1% DMSO were added. The next day all media was replaced with SFM (0.1 ml/well) containing 0-500 μM t-butyl hydroperoxide (ICN Biomedicals, Irvine, Calif.). After four hours incubation at 37° C. in 5% CO2 the assay was started by adding 20 μl of a mixture of twenty parts MTS (3-(4,5-dimethythiazol-2-yl)-5-(3-carboxymethoxyphenyl)-2-(4-sulfophenyl)-2H-tetrazolium, inner salt) and one part PMS (phenazine methosulfate) from the Promega ClelTiter 96® AQueous Non-Radioactive Cell Proliferation Assay kit (Promega Corporation, Madison, Wis.). The plates were returned to the incubator for three hours and then net absorbances at 490 nm, obtained by subtraction of a blank mean, were recorded and used as a measure of levels of viable cells.
Using six wells per condition, the assay was carried out three times. The absorbance values were normalized such that the control wells without t-butyl hydroperoxide equaled 100%, and data from the three assays were pooled. An overall statistical difference was found among treatment groups (see FIGURE; ANOVA, P<0.05).
Background: Tetrazolium dyes change colour on reduction, which living cells bring about.

Data set [2] has as its system experimentally induced diabetic rats. The settings on record: oral administration; cited from earlier work.
Another data set relates to cultured human RPE cells. The settings on record: cited from earlier work.
The subject of data set [3] is γ-glutamylcysteine synthetase. The settings on record: cited from earlier work.
For data set [4], the system named is phase II detoxification enzyme. The settings on record: human retinal pigment epithelial cells; cited from earlier work.
The test system of data set [5] is quinone reductase, glutathione-S-transferase, and glutathione reductase. The settings on record: various cell lines including human adult retinal pigment epithelial cells; cited from earlier work.

Molecules are shown by their SMILES.

For `CCCCS(=N)(=O)CCC(N)C(=O)O` (racemic) [BS, DL-buthionine-(S,R)-sulfoximine], the cell survival result in data set [1] (100 μM BSO pretreatment alone, no t-butyl hydroperoxide) was “no effect on cell survival”. Moreover, the “effect on toxicity of t-butyl hydroperoxide” value in data set [1] (100 μM BSO pretreatment, all t-butyl hydroperoxide concentrations) is given as “significantly enhanced the toxicity”.

As for `O=c1c(-c2ccc(O)cc2)coc2cc(O)cc(O)c12` [genistein], the retinal vascular leakage entry in data set [2] is “reduces retinal vascular leakage”.

For `Cc1c(-c2cnccn2)ssc1=S` [oltipraz], the “protection from chemical oxidants” value in the data set with cultured human RPE cells is given as “Protection of cultured human RPE cells from chemical oxidants”.

In the case of `O=c1c(O)c(-c2ccc(O)c(O)c2)oc2cc(O)cc(O)c12` [quercetin], the glutathione levels entry in data set [3] was “increase glutathione levels”. Also, the “numbers of viable cells (net absorbance at 490 nm, normalized to control without t-butyl hydroperoxide = 100%)” value in data set [1] (25 μM quercetin pretreatment, then 0-500 μM t-butyl hydroperoxide 4 h, versus control group at each t-butyl hydroperoxide concentration) was “higher numbers of viable cells than in the control group”.

Consider `C[S+]([O-])CCCCN=C=S` (stereo not shown) [sulforaphane], for which the “protection from chemical oxidants” value in the data set with cultured human RPE cells is given as “Protection of cultured human RPE cells from chemical oxidants”. The “induction of a phase II detoxification enzyme” value in data set [4] was “induction of a phase II detoxification enzyme”. The enzyme induction result in data set [5] was “induce quinone reductase, glutathione-S-transferase, and glutathione reductase”.

Take `CC(C)(C)OO` [t-butyl hydroperoxide]: in data set [1] (t-butyl hydroperoxide exposure 4 h, all concentrations up to 500 μM), the cell survival entry was “significant reductions in cell survival”.
